In patent US7094423B1, “Methods for preparation of lipid-encapsulated therapeutic agents” (INEX Pharmaceuticals Corp., priority 1999, dated 2006):
Values joined by “and” are separate entries in the source; they are usually repeats but may differ in a detail not shown here. Identical values can stand only once.

Legend:
Assay type in all cases: physicochemical
[1] = OliGreen assay: percentage of oligo that is encapsulated; details: for Encap Oligo %: Ex. 2 procedure
Protocol: The Oligreen Assay was used to quantify the amount of oligonucleotide loaded into the vesicles. A fluorescent dye binding assay for quantifying single stranded oligonucleotide in aqueous solutions was established using a Biolumin™ 960 fluorescent plate reader (Molecular Dynamics, Sunnyvale, Calif., USA). Briefly, aliquots of encapsulated oligonucleotide were diluted in HEPES buffered saline (HBS; 20 mM HEPES, 145 mM NaCl, pH 7.5). A 10 μL aliquot of the diluted sample was added to 100 μL of a 1:200 dilution of Oligreen™ reagent, both with and without 0.1% of Triton X-100 detergent. An oligo standard curve was prepared with and without 0.1% Triton X-100 for quantification of encapsulated oligo. Fluorescence of the Oligreen™-antisense complex was measured using excitation and emission wavelengths of 485 nm and 520 nm, respectively. Surface associated antisense was determined by comparing the fluorescence measurements in the absence and presence of detergent.
(§1) [formula] The percentage of oligo that is encapsulated (i.e., incorporated in bilayers or entrapped in the interior of the lipid particle) was determined with the OliGreen assay described above.

[2] = Final drug/lipid ratio and encapsulation efficiency (E.E.)
Protocol: The procedure of Example 2 was repeated with changes to various parameters to determine which might be critical to the preparation of fully lipid-encapsulated therapeutic agent particles in accordance with the invention. In these experiments, the total oligonucleotide recovery (yield), the total lipid recovery (yield) and the encapsulation efficiency were considered as indications of the quality of the product and the process. Total oligonucleotide recovery was calculated using the formula:
[formula] Encapsulation Efficiency (E.E.) was calculated using the formula:
as §1

[3] = Dynamic light scattering: vesicle size; details: for Size [nm]: DSPC/Chol/DODAP/PEG-CerC14 20/45/25/10 mol %, initial oligonucleotide-to-lipid 0.23 mg/mg, number-averaged
Protocol: Dynamic light scattering. Sizes were determined by dynamic light scattering using a NICOMP 370 particle sizer (Nicomp Particle Sizing Inc., Santa Barbara, Calif.). Throughout the application, number-averaged sizes are presented, which were obtained by a cumulant fit from the experimental correlation functions. The polydispersity is expressed as the half-width at half-height of a monomodal Gaussian size distribution. The viscosity of the ethanol/citrate buffer was determined using an Ubelohde-type viscometer (Cannon 50). […] The zeta potential was determined by electrophoretic light scattering using a Coulter light scattering instrument (DELSA, Coulter Electronics Inc., FL).

[4] = citrate buffer 50 mM, initial drug/lipid 0.1
[5] = citrate buffer 100 mM, initial drug/lipid 0.1
[6] = citrate buffer 200 mM, initial drug/lipid 0.1
[7] = citrate buffer 300 mM, initial drug/lipid 0.1
[8] = incubation temp RT(20–22) °C, 1 hour
[9] = initial EtOH 33%, initial drug/lipid 0.2
[10] = initial EtOH 36%, initial drug/lipid 0.1
[11] = initial EtOH 40%, initial drug/lipid 0.2
[12] = initial EtOH 43%, initial drug/lipid 0.1
[13] = initial EtOH 43%, initial drug/lipid 0.2
[14] = initial EtOH 45%, initial drug/lipid 0.1
[15] = oligo stock 10 mg/ml, initial drug/lipid 0.1
[16] = oligo stock 20 mg/ml, initial drug/lipid 0.1
[17] = oligo stock 30 mg/ml, initial drug/lipid 0.1
[18] = oligo stock 40–50 mg/ml, initial drug/lipid 0.1
[19] = Ex. 2 procedure, initial drug/lipid ratio 0.1
[20] = Ex. 2 procedure, initial drug/lipid ratio 0.2

## 5′-TAACGTTGAGGGGCAT-3′ (listed as DNA, chemistry not given here) [INX-6295]
[1]; initial drug/lipid ratio 0.1
  Encap Oligo %: ≧90%
[1]; initial drug/lipid ratio 0.2
  Encap Oligo %: ≧80%
[1]; [4]
  Encapsulated Oligo %: 94%
[1]; [5]
  Encapsulated Oligo %: 90%
[1]; [6]
  Encapsulated Oligo %: 91%
[1]; [7]
  Encapsulated Oligo %: 92%
[1]; incubation temp 40 °C, 1 hour
  Encaps Oligo %: 91%
[1]; incubation temp 60 °C, 1 hour
  Encaps Oligo %: 83%
[1]; [8]
  Encaps Oligo %: 90%
[1]; incubation time 0.5 hr at 40° C.
  Encapsulated Oligo %: 92%
[1]; incubation time 1 hr at 40° C.
  Encapsulated Oligo %: 94%
[1]; incubation time 2 hr at 40° C.
  Encapsulated Oligo %: 95%
[1]; [9]
  Encaps Oligo %: 88%
[1]; [10]
  Encaps Oligo %: 85–89%
[1]; [11]
  Encaps Oligo %: 82%
[1]; [12]
  Encaps Oligo %: 84–89%
[1]; [13]
  Encaps Oligo %: 62%
[1]; [14]
  Encaps Oligo %: 90–92%
[1]; [15]
  Encaps Oligo %: 90%
[1]; [16]
  Encaps Oligo %: 88%
[1]; [17]
  Encaps Oligo %: 90%
[1]; [18]
  Encaps Oligo %: 88–94%
[2]; [19]
  E.E. %: 100%
  Final Drug/Lipid Ratio: 0.1
[2]; [20]
  Final Drug/Lipid Ratio: 0.17–0.2
[2]; [9]
  E.E. %: 60%
  Final Drug/Lipid: 0.12
[2]; [11]
  E.E. %: 75%
  Final Drug/Lipid: 0.15
[2]; [13]
  E.E. %: 95%
  Final Drug/Lipid: 0.19
[3]; 2.5 mol % PEG-CerC14, 25% ethanol, initial oligonucleotide-to-lipid 0.037 mol/mol
  Average size [nm]: 125 ± 35 (108 ± 26) nm
[3]; 2.5 mol % PEG-CerC14, 40% ethanol, initial oligonucleotide-to-lipid 0.037 mol/mol, listed as c-myc
  Average size [nm]: 131±40 nm and 131 ± 40 (108 ± 26) nm
[3]; 5 mol % PEG-CerC14, 40% ethanol, initial oligonucleotide-to-lipid 0.037 mol/mol
  Average size [nm]: 126 ± 36 (107 ± 22) nm
[3]; 10 mol % PEG-CerC14, 25% ethanol, initial oligonucleotide-to-lipid 0.037 mol/mol
  Average size [nm]: 92 ± 18 (93 ± 18) nm
[3]; 10 mol % PEG-CerC14, 40% ethanol, initial oligonucleotide-to-lipid 0.037 mol/mol, listed as c-myc
  Average size [nm]: 100±26 nm and 100 ± 26 (93 ± 18) nm
[3]; DSPC/Chol/DODAP liposomes (no modified lipid), 0% EtOH [v/v], molar ODN/lipid 0.035, pH 4
  Average size [nm]: 148 ± 56 nm
[3]; DSPC/Chol/DODAP liposomes (no modified lipid), 20% EtOH [v/v], molar ODN/lipid 0.035, pH 4
  Average size [nm]: 226 ± 104 nm
[3]; DSPC/Chol/DODAP liposomes (no modified lipid), 30% EtOH [v/v], molar ODN/lipid 0.035, pH 4
  Average size [nm]: 470 ± 244 nm
[3]; [19]
  Vesicle Size (nm): 106 nm
[3]; [20]
  Vesicle Size (nm): 119 nm
[3]; OGP 30 mM in place of ethanol
  Size [nm]: 65 ± 12 nm
[3]; OGP 35 mM in place of ethanol
  Size [nm]: 100 ± 22 nm
[3]; OGP 40 mM in place of ethanol
  Size [nm]: 145 ± 38 nm
[3]; [4]
  Vesicle Size (nm): 80 nm
[3]; [5]
  Vesicle Size (nm): 90 nm
[3]; [6]
  Vesicle Size (nm): 93 nm
[3]; [7]
  Vesicle Size (nm): 106 nm
[3]; incubation temp 40 °C, 1 hour
  Vesicle Size (nm): 109 nm
[3]; incubation temp 60 °C, 1 hour
  Vesicle Size (nm): 140 nm
[3]; [8]
  Vesicle Size (nm): 114 nm
[3]; [9]
  Vesicle Size (nm): 115 nm
[3]; [10]
  Vesicle Size (nm): 110 nm
[3]; [11]
  Vesicle Size (nm): 114 nm
[3]; [12]
  Vesicle Size (nm): 116 nm
[3]; [13]
  Vesicle Size (nm): 105 nm
[3]; [14]
  Vesicle Size (nm): 108 nm
[3]; initial ODN-to-lipid weight ratio of 0.2
  size and polydispersity of liposomes: 110±30 nm
[3]; [15]
  Vesicle Size (nm): 106 nm
[3]; [16]
  Vesicle Size (nm): 112 nm
[3]; [17]
  Vesicle Size (nm): 110 nm
[3]; [18]
  Vesicle Size (nm): 106 nm
